We go through 1 molecule from article PMC11237586, “4′-Fluorouridine inhibits alphavirus replication and infection in vitro and in vivo” (mBio, 2024).

Experiment [1] deals with CHIKV nsP4 (RdRp) with SFV P123, mixed trans-replicase (Chikungunya virus strain S27-African prototype, UniProt Q8JUX6). Briefly: cell-based.
The target in experiment [2] is SFV nsP4 (RdRp) with SFV P123, trans-replicase (Semliki Forest virus, UniProt P08411). Nature of the experiment: trans-replicase Gaussia luciferase reporter assay in transfected U-2 OS cells. The class given is cell-based.
SFV nsP4 (RdRp) with SFV P123, trans-replicase, sequence (P08411 1-1818): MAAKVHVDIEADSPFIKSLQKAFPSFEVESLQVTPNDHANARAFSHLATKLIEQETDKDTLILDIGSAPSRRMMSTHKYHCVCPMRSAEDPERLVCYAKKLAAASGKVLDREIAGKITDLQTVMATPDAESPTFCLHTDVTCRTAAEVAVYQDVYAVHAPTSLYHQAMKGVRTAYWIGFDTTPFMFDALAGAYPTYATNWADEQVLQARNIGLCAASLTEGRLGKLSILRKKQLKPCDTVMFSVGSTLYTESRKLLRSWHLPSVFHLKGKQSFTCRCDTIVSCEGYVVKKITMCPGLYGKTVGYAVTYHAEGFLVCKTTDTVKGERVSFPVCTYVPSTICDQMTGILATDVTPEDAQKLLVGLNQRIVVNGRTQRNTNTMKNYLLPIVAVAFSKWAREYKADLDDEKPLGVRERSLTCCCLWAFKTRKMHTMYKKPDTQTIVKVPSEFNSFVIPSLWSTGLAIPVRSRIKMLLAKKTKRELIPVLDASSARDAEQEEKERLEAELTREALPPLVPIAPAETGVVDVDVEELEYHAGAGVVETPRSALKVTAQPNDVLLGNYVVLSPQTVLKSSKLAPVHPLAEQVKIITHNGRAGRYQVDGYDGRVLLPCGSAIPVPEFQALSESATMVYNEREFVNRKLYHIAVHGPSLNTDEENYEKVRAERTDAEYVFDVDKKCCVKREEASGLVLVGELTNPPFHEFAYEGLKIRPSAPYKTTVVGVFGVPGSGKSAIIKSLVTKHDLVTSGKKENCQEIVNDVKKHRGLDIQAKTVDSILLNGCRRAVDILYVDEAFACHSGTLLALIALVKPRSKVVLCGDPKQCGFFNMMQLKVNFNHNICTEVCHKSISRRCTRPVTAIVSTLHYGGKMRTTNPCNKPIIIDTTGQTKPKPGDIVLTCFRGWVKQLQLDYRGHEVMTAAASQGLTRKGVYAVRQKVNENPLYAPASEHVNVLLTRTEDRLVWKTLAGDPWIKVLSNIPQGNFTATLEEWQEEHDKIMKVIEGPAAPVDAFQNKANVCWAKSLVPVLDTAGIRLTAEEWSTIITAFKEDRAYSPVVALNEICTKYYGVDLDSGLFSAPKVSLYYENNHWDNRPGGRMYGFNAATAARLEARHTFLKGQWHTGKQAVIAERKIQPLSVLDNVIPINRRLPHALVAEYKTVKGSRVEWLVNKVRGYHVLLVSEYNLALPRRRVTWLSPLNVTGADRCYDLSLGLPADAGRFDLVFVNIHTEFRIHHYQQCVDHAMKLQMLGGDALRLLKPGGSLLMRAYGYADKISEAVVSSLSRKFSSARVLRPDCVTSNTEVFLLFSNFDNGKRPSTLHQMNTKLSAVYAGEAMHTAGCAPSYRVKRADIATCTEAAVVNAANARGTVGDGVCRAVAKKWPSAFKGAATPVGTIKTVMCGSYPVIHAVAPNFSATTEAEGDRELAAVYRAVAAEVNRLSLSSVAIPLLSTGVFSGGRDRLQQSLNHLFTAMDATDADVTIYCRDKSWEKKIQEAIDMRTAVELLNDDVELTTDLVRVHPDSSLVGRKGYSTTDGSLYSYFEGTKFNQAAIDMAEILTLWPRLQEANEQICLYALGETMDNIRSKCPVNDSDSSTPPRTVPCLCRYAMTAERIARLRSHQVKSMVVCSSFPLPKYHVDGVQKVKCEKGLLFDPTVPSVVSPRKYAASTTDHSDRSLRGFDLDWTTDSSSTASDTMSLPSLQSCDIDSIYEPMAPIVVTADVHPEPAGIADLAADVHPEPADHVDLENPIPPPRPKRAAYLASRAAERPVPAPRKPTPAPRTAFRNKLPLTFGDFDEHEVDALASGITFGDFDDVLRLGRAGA
SFV nsP4 (RdRp) with SFV P123, trans-replicase, sequence (P08411 1819-2431): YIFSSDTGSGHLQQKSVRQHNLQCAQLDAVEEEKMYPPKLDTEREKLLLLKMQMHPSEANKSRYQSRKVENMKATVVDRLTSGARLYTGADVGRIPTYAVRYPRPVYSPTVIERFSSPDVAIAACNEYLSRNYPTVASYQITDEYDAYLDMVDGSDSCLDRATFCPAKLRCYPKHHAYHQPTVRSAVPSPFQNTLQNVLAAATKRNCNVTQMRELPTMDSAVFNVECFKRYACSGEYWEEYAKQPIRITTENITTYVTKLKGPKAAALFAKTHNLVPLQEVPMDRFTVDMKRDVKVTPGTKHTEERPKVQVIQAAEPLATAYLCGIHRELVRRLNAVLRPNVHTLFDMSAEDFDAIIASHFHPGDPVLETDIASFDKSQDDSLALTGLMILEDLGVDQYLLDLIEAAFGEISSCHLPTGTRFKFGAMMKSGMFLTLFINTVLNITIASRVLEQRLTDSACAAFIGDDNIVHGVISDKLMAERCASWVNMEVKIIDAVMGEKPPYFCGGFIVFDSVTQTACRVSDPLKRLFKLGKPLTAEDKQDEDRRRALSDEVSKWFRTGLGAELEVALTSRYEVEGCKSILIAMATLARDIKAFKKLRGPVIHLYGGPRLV

CHIKV nsP4 (RdRp) with SFV P123, mixed trans-replicase, sequence (Q8JUX6 1864-2474): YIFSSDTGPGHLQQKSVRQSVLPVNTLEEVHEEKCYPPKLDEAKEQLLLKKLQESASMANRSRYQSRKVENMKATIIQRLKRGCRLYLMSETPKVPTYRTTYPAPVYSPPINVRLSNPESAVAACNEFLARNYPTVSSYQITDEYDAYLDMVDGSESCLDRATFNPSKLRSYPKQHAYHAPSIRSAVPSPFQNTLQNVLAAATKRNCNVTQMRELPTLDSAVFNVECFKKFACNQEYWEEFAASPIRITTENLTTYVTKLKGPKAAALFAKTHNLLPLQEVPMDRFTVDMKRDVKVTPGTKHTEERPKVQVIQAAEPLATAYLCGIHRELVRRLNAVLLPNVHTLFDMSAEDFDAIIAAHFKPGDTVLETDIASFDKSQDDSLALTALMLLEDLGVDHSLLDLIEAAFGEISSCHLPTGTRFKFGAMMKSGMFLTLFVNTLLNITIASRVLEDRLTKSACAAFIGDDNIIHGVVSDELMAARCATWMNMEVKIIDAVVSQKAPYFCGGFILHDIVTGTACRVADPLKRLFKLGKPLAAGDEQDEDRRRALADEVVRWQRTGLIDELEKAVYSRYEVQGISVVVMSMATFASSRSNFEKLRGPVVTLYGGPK
CHIKV nsP4 (RdRp) with SFV P123, mixed trans-replicase, sequence (P08411 1-1818, further chain): as the sequence (P08411 1-1818) above

In the case of `O=c1ccn([C@@H]2O[C@](F)(CO)[C@@H](O)[C@H]2O)c(=O)[nH]1` [4′-fluorouridine], the half-maximal effective concentration (EC50) in experiment [1] turned out to be 640 nM; in experiment [2], 2100 nM.

A word on the EC50: it is the concentration at which the effect is half-maximal. Lower therefore signals a more potent agent.
